Results from US20240159675A1, “METHODS AND DEVICES FOR RATIOMETRIC CHARACTERIZATION OF FLUORESCENT PARTICLES” (NANOTEMPER TECHNOLOGIES GMBH, priority 2021, published 2024).
Like-named read-outs stand apart in the source and are kept apart here. Values belong to the compound of their own block, whether it stands above or below them. {Cy5} = Cy5 dye label

Columns and labels:
lysozyme [1] = target: T1, lysozyme (Gallus gallus, UniProt P00698); assay: Emission spectrum of fluorescently labeled lysozyme alone and in complex with NAG3; assay type: binding; details: corresponding to the spectral shift (Table 3)
Source text: (§1) Shifts of 3 nm and of approx. 500 pm correspond to relative changes in the fluorescence ratio of about 37.3% and 5.5%, respectively (Table 3).

lysozyme [2] = target: T1, lysozyme; assay: Ratio 350 nm/330 nm of intrinsic tryptophan fluorescence during thermal melting ramp 35° C. to 95° C.; assay type: binding; details: increasing / very high concentrations of NAG3, unlabeled lysozyme
Protocol: To monitor the temperature of denaturation, each sample is heated from 35° C. to 95° C. […] This shift cannot be used to extract the dissociation constant of this interaction.
The alterations in the fluorescence spectrum are independent of the nature of the fluorescent label, i.e. they equally appear in intrinsic as well as extrinsic fluorescent labels. However, the extend of the alterations in the fluorescence spectrum may be increased for certain classes of labels.

[3] = tested on: complementary 11-mer DNA strand labeled with Cy5; assay: Kd-over-time curve of DNA hybridization, dual-emission configuration with IR laser (Example 10); assay type: binding
Protocol: For the DNA hybridization, a 16-point 1-to-1 dilution series of the unlabeled 11-mer (sequence: 5′ CCT GAA GTC C 3′) was prepared. The complementary 11-mer (sequence: 5′ GGA CTT CAG G 3′) was fluorescently labeled at its 5′ end with Cy5 and added in equal amounts to the dilution series to obtain a final sample concentration of 10 nM. The highest concentration of the unlabeled 11-mer corresponded to 100 μM.
(§2) At the timepoint 0 s, an IR laser was switched on. The response of the fluorescence intensity was simultaneously measured for 6 s (aptamer), respectively 21 s (DNA hybridization).
(§3) From above it is evident that information on the binding interaction (e.g. Kd) can be derived from any “vertical” slice in time along the ratiometric traces, when the method of the present invention is used in combination with fast IR laser heating. A new type of curve, which can be described as Kd-over-time curve can be generated. From this curve not only information on the thermodynamics but also on the binding kinetics of the interaction can be determined. In particular, if the equilibration kinetics of an interaction is slower than the heating with the IR laser, the Kd-over-time curve will show a characteristic lag.
(§4) The Kd-over-time curves provided in FIG. 23 reveal three different interactions with different dissociation constants Kd and binding kinetics.

[4] = target: fluorescently labeled streptavidin (Streptomyces avidinii, UniProt P22629); assay: Ratiometric dual-emission dose-response, biotin dilution series (Example 4); assay type: binding; details: 20 nM streptavidin
Protocol: A 12-point 1-to-1 dilution series of unlabeled biotin was prepared. […] The highest concentration of biotin corresponded to 500 nM.
As evident from the dose-response curve shown in FIG. 17, the ratio changed from a value of approx. 2.2 to approx. 1.2 when streptavidin is unbound or in complex with biotin, respectively. Since the target concentration is much higher than the Kd, a characteristic kink at the stoichiometry point at a concentration of 80 nM biotin can be observed.

streptavidin = streptavidin (Streptomyces avidinii, UniProt P22629); assay: Emission spectrum of fluorescently labeled streptavidin alone and in complex with biotin; assay type: binding
Source text: as §1

Cy5-labeled DNA aptamer [5] = assay: Ratiometric measurement with the dual-emission configuration, AMP dilution series (Example 1); assay type: binding; details: 20 nM Cy5-labeled DNA aptamer, read-out: Kd of the interaction
Protocol: (§5) A 14-point 1-to-1 dilution series of unlabeled AMP was prepared. The DNA aptamer was fluorescently labeled with Cy5 and added in equal amounts to the AMP dilution series to obtain a final sample concentration of 20 nM. The highest concentration of AMP corresponded to 5 mM. For measurements with a standard fluorescence microplate-reader (CLARIOstar, BMG Labtech) 95 […] of the sample were loaded into a micro-well plate.
(§6) For the microplate-reader measurements, the sample was excited at a wavelength of 590 nm and the emission was first detected at a wavelength of 628 nm to 652 nm. Then, the sample was again excited at the 590 nm wavelength and the emission was detected at a wavelength of 665 nm to 725 nm. Three subsequent fluorescence intensity measurements of the dilution series were run.
When using lower sample concentrations, i.e. 250 pM, for the ratiometric measurement according to the present invention, the signal-to-noise ratio (S/N) is still very good (19.8) and a Kd of the interaction can be easily determined (FIG. 10C).

Cy5-labeled DNA aptamer [6] = assay: Ratiometric measurement with a standard fluorescence microplate-reader, AMP dilution series (Example 1); assay type: binding; details: 20 nM Cy5-labeled DNA aptamer, read-out: dissociation constant (Kd), midpoint of dose-response curve
Protocol: as §5, §6
In order to characterize the interaction with the fluorescence microplate-reader, the ratio between the fluorescence intensities per well was calculated manually by using a commercially available calculation tool (Microsoft Excel). The fluorescence detected at the higher wavelength was divided by the fluorescence detected at the lower wavelength. The sigmoidal dose-response curve provided in FIG. 10A starts at a ratio value of approx. 0.95 and ends at a ratio value of approx. 0.90. The midpoint, which corresponds to the dissociation constant (Kd) of the interaction, lies at approx. 20-30 μM. […]

[7] = target: Cy5-labeled DNA aptamer for adenosine; assay: Kd-over-time curve, dual-emission configuration with IR laser, AMP (Example 10); assay type: binding; details: FIG. 23A
Protocol: For the aptamer, a 12-point 1-to-1 dilution series of unlabeled AMP was prepared. The DNA aptamer was fluorescently labeled with Cy5 and added in equal amounts to the AMP dilution series to obtain a final sample concentration of 20 nM. The highest concentration of AMP corresponded to 2 mM.
as §2, §3, §4

[8] = Fluorescence ratio of labeled protein over time at room temperature (Example 9); assay type: physicochemical; details: 20 nM labeled protein, 0, 3, 8 and 19 minutes
Protocol: The labeled protein was then diluted to a concentration of 20 nM and loaded into a polymer-coated borosilicate glass capillary (Monolith NT.115 Premium Capillaries, MO-K025, NanoTemper Technologies).
The sample was excited at a wavelength of 591 nm. […] Measurements were performed directly after dilution (t=0 min) and again after 3, 8 and 19 minutes inside the capillary.

T1 sequence (P00698 19-147): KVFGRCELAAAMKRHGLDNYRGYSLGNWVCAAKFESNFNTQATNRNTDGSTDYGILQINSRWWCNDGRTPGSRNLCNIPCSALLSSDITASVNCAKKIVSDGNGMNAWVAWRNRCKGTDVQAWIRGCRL

Compound: CC(=O)N[C@H]1[C@H](O[C@H]2[C@H](O)[C@@H](NC(C)=O)C(O)O[C@@H]2CO)O[C@H](CO)[C@@H](O[C@@H]2O[C@H](CO)[C@@H](O)[C@H](O)[C@H]2NC(C)=O)[C@@H]1O (stereo partly drawn) [NAG3, Tri-N-acetyl-D-glucosamine]
- relative change in the fluorescence ratio (lysozyme [1]): ~5.5%
- effect on thermal denaturation of lysozyme (lysozyme [2]): thermal stabilization

Compound: 11-mer complementary DNA strands: unlabeled 11-mer (5′ CCT GAA GTC C 3′) titrated against complementary 11-mer (5′ GGA CTT CAG G 3′) labeled at 5′ end with Cy5 (chain 1 CCTGAAGTCC; chain 2 GGACTTCAGG; chain 1: DNA, backbone not given here; chain 2: DNA, 5' {Cy5}, backbone not given here)
- koff ([3]; measured at 22° C., FIG. 23C): smaller than 0.01 s^−1
- Kd ([3]; measured at 22° C., FIG. 23C, read-out: Kd): ~0.005 µM
- koff ([3]; measured at 32° C., estimated, FIG. 23B): approx. 1 s^−1
- Kd ([3]; sample temperature 22° C., FIG. 24B, read-out: Kd value at start of IR laser on-time): ~0.01 µM
- Kd ([3]; temperature after IR laser heating approx. 32° C., FIG. 24B, read-out: Kd value after IR laser heating): ~0.5 µM

Compound: O=C(O)CCCC[C@@H]1SC[C@@H]2NC(=O)N[C@@H]21 [biotin]
- stoichiometry point (kink in dose-response curve) ([4]; concentration of biotin): 80 nM
- ratio 670 nm/650 nm of streptavidin in complex with biotin ([4]; unbound approx. 2.2): approx. 1.2
- relative change in the fluorescence ratio (streptavidin; corresponding to the spectral shift (Table 3)): about 37.3%
- shift of the maximum emission peak wavelength (streptavidin; streptavidin 200 nM, biotin 2 μM, excitation 605 nm): 3 nm

- Kd (Cy5-labeled DNA aptamer [5]): 39.3 µM
- Kd (Cy5-labeled DNA aptamer [6]): 20 to 30 µM
- Kd ([7]; Kd-over-time curve): ~30 µM
- koff ([7]; estimated from Kd-over-time curve): greater than 10 s^−1
Compound: Nc1ncnc2c1ncn2[C@@H]1O[C@H](COP(=O)(O)O)[C@@H](O)[C@H]1O [AMP, adenosine monophosphate]

Compound: Mitogen-activated protein kinase 14 (p38-α): Mitogen-activated protein kinase 14, fluorescently labeled with Protein Labeling Kit RED-NHS 2nd Generation
- stability at room temperature (fluorescence ratio over about 20 minutes) [8]: not stable at room temperature but gradually denatures
